The results in this text go back to patent US9266904B2, “6-bridged heteroaryldihydropyrimidines for the treatment and prophylaxis of hepatitis B virus infection” (priority 2013, dated 2016).

Molecules are shown by their SMILES. Read-outs that look alike come from different tables or passages of the source.

Data set [1] has as its system HBV replication in HepG2.2.15 cells. The experiment in a line: Anti-HBV activity in vitro in HepG2.2.15 cells (extracellular HBV DNA by qPCR). As to conditions: Hepatitis B virus. The format is cell-based. Put shortly:
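EC50 is derived from qPCR of extracellular viral DNA in culture supernatant after 5-day compound exposure. Cells (HepG2.2.15, stably carrying the HBV genome) were plated and incubated overnight at 37 °C before half-log dilution series were added at 0.5% final DMSO.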

Data set [2] can be described thus: Human microsomal clearance assay. As to conditions: human, 1 μM, pH 7.4. Type of data set: in vitro ADME. Put shortly:
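Liver microsomes (0.5 mg/mL protein) were incubated with 1 μM compound at 37 °C, pH 7.4 phosphate, with an NADPH-regenerating system. Samples at 0-30 min were quenched and measured by LC-MS/MS for parent loss. No-NADPH controls were included.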

The nature of data set [3]: Cytotoxicity (CCK-8 cell viability) and selectivity index. As to conditions: human, HepDE19 cells; cytotoxicity, concentration resulting in death of 50% of host cells. Type of data set: cell-based, human. The source says: (§1) HepG2.2.15 and HepDE19 are stably-transfected cell lines containing the HBV genome. Both cell lines are derived from the hepatoblastoma cell line Hep G2 (American Type Culture Collection, ATCC® HB-8065™) by the published procedures described in references: M A Selles et al. Proc. Natl. Acad. Sci. USA 1987, 84, 1005-1009 and H Guo et al. Journal of Virology 2007, 81, 12472-12484, respectively. Both cell lines were maintained in Dulbecco's modified Eagle's medium (DMEM)-F12 medium supplemented with 10% fetal bovine serum, 100 U/mL penicillin, 100 μg/mL streptomycin, and 0.5 mg/mL of G418.
(§2) In a cell culture model, apparent antiviral activity of a compound can be the result of host cell death after exposure to the compound. To determine whether the anti-HBV effect of a test compound is due to cytotoxicity, HepDE19 cells were seeded into 96-well plates (5×10^3 cells per well) and treated with compounds as described above for EC50 determination. Five days after treatment, cell viability was measured by addition of 20 μL of CCK-8 reagent. Two hours after incubation at 37° C., the absorbance at wavelengths of 450 nm and 630 nm (OD450 and OD630) was recorded by a plate reader. The concentration results in the death of 50% of the host cells (CC50) of each compound was determined (See Table 5).

In data set [4] the test system is HepDE19 cells. The description is as above. Type of data set: cell-based, human. As to conditions: CC50 value/EC50 value.
From the text: as §1, §2

Setting [5] is: HepG2.2.15, Anti-HBV activity in HepG2.2.15 cells, read-out: EC50.

What is called EC50 is the concentration that produces a half-maximal response. Broadly, the CC50 is the concentration at which the toxic effect on the cells reaches its halfway point. In the case of `COC(=O)C1=C(CN2C3COCC2CN(S(C)(=O)=O)C3)NC(c2nccs2)=N[C@H]1c1ccc(F)cc1Cl` [Example 11, (R)-4-(2-Chloro-4-fluoro-phenyl)-6-(7-methanesulfonyl-3-oxa-7,9-diaza-bicyclo[3.3.1]non-9-ylmethyl)-2-thiazol-2-yl-1,4-dihydro-pyrimidine-5-carboxylic acid methyl ester], the EC50 in data set [1] (setting [5]) was 6.6 nM. In data set [2], this compound gave a CLh of 9.0 mL/min/kg. For the same compound, the CC50 at 5 days in data set [3] was over 100000 nM. The “Selectivity index (CC50/EC50)” value in data set [4] is reported as over 15152.
Turning to `COC(=O)C1=C(CN2C3COCC2CN(S(N)(=O)=O)C3)NC(c2nccs2)=N[C@H]1c1ccc(F)cc1Cl` [Example 19, (R)-4-(2-Chloro-4-fluoro-phenyl)-6-(7-sulfamoyl-3-oxa-7,9-diaza-bicyclo[3.3.1]non-9-ylmethyl)-2-thiazol-2-yl-1,4-dihydro-pyrimidine-5-carboxylic acid methyl ester], the EC50 in data set [1] (setting [5]) turned out to be 4 nM. Besides, the CLh in data set [2] is 4.6 mL/min/kg. In data set [3], half-maximal cytotoxicity (CC50 at 5 days) was put at 58000 nM. Moreover, the “Selectivity index (CC50/EC50)” value in data set [4] amounted to 16571.
Regarding `COC(=O)C1=C(CN2C3COCC2CC(NS(C)(=O)=O)C3)NC(c2nccs2)=N[C@H]1c1ccc(F)cc1Cl` (stereo partly drawn) [Example 36, (R)-4-(2-Chloro-4-fluoro-phenyl)-6-(7-methanesulfonylamino-3-oxa-9-aza-bicyclo[3.3.1]non-9-ylmethyl)-2-thiazol-2-yl-1,4-dihydro-pyrimidine-5-carboxylic acid methyl ester], the EC50 in data set [1] (setting [5]) turned out to be 3 nM. Further, in data set [2], the CLh was 7.8 mL/min/kg. The CC50 at 5 days in data set [3] is 38000 nM. Moreover, the “Selectivity index (CC50/EC50)” value in data set [4] is 11875.
As to `COC(=O)C1=C(CN2[C@@H]3COC[C@H]2C[C@H](NS(C)(=O)=O)C3)NC(c2nccs2)=N[C@H]1c1ccc(F)cc1Cl` [Example 60, Methyl (4R)-4-(2-chloro-4-fluoro-phenyl)-6-[[(1R,5S)-7-exo-(methanesulfonamido)-3-oxa-9-azabicyclo[3.3.1]nonan-9-yl]methyl]-2-thiazol-2-yl-1,4-dihydropyrimidine-5-carboxylate], the EC50 in data set [1] (setting [5]) turned out to be 1.6 nM. The compound further had a CLh in data set [2] of 6.4 mL/min/kg. Further, the CC50 at 5 days in data set [3] stood at 34000 nM. The “Selectivity index (CC50/EC50)” value in data set [4] was determined as 21169.
With `COC(=O)C1=C(CN2[C@@H]3COC[C@H]2C[C@H](NC(C)=O)C3)NC(c2nccs2)=N[C@H]1c1ccc(F)cc1Cl` [Example 61, Methyl (4R)-6-[[(1S,5R)-7-exo-acetamido-3-oxa-9-azabicyclo[3.3.1]nonan-9-yl]methyl]-4-(2-chloro-4-fluoro-phenyl)-2-thiazol-2-yl-1,4-dihydropyrimidine-5-carboxylate], the 50% effective concentration (EC50) in data set [1] (setting [5]) came to 4.8 nM. In data set [2], this compound registered a CLh of 6.3 mL/min/kg. The compound also displayed a CC50 at 5 days in data set [3] of 53000 nM. Moreover, the “Selectivity index (CC50/EC50)” value in data set [4] was found to be 10942.
In the same order, the values of `COC(=O)C1=C(CN2[C@@H]3COC[C@H]2C[C@H](NC(N)=O)C3)NC(c2nccs2)=N[C@H]1c1ccc(F)cc1Cl` [Example 62, Methyl (4R)-4-(2-chloro-4-fluoro-phenyl)-2-thiazol-2-yl-6-[[(1S,5R)-7-exo-ureido-3-oxa-9-azabicyclo[3.3.1]nonan-9-yl]methyl]-1,4-dihydropyrimidine-5-carboxylate] are 7 nM, 4.6 mL/min/kg, 46000 nM and 6571.
For the compound `COC(=O)C1=C(CN2[C@@H]3COC[C@H]2C[C@H](NS(N)(=O)=O)C3)NC(c2nccs2)=N[C@H]1c1ccc(F)cc1Cl` [Example 63, Methyl (4R)-4-(2-chloro-4-fluoro-phenyl)-6-[[(1R,5S)-7-exo-(sulfamoylamino)-3-oxa-9-azabicyclo[3.3.1]nonan-9-yl]methyl]-2-thiazol-2-yl-1,4-dihydropyrimidine-5-carboxylate], the EC50 in data set [1] (setting [5]) was 1.5 nM. This compound returned a CLh in data set [2] of 4.1 mL/min/kg. In data set [3], this compound returned a CC50 at 5 days of 34000 nM. Also, the “Selectivity index (CC50/EC50)” value in data set [4] was 22367.
With `COC(=O)C1=C(CN2C3COCC2c2conc2C3)NC(c2nccs2)=N[C@H]1c1ccc(F)cc1Cl` (stereo partly drawn) [Example 104, (4R)-4-(2-Chloro-4-fluoro-phenyl)-6-(4,10-dioxa-5,12-diaza-tricyclo[6.3.1.0*2,6*]dodeca-2,5-dien-12-ylmethyl)-2-thiazol-2-yl-1,4-dihydro-pyrimidine-5-carboxylic acid methyl ester], in data set [1] (setting [5]), the EC50 amounted to 4.8 nM. Besides, the midpoint of cytotoxicity in data set [3], the CC50 at 5 days, lay at 44000 nM. Further, the “Selectivity index (CC50/EC50)” value in data set [4] is listed as 9079.
Regarding `COC(=O)C1=C(CN2C3COCC2c2cnoc2C3)NC(c2nccs2)=N[C@H]1c1ccc(F)cc1Cl` (stereo partly drawn) [Example 105, (4R)-4-(2-Chloro-4-fluoro-phenyl)-6-(5,10-dioxa-4,12-diaza-tricyclo[6.3.1.0*2,6*]dodeca-2(6),3-dien-12-ylmethyl)-2-thiazol-2-yl-1,4-dihydro-pyrimidine-5-carboxylic acid methyl ester], in data set [1] (setting [5]), the EC50 is 2.7 nM. In data set [3], this compound gave a CC50 at 5 days of 33000 nM. For the same compound, the “Selectivity index (CC50/EC50)” value in data set [4] came to 12041.
For the compound `COC(=O)C1=C(CN2C3COCC2C(F)(F)c2[nH]ncc23)NC(c2nccs2)=N[C@H]1c1ccc(F)cc1Cl` (stereo partly drawn) [Example 107, (R)-4-(2-Chloro-4-fluoro-phenyl)-6-(7,7-difluoro-10-oxa-4,5,12-triaza-tricyclo[6.3.1.0*2,6*]dodeca-2(6),3-dien-12-ylmethyl)-2-thiazol-2-yl-1,4-dihydro-pyrimidine-5-arboxylic acid methyl ester], the EC50 in data set [1] (setting [5]) was 2.1 nM. The compound also registered a CC50 at 5 days in data set [3] of 26000 nM. Moreover, in data set [4], the “Selectivity index (CC50/EC50)” value is listed as 12495.
In the same order, the values of `COC(=O)C1=C(CN2C3COCC2C(F)(F)C3)NC(c2nccs2)=N[C@H]1c1ccc(F)cc1Cl` (stereo partly drawn) [Example 108, Methyl (4R)-4-(2-chloro-4-fluorophenyl)-6-[(6,6-difluoro-3-oxa-8-azabicyclo[3.2.1]octan-8-yl)methyl]-2-(1,3-thiazol-2-yl)-1,4-dihydropyrimidine-5-carboxylate] are 7.4 nM, 74000 nM and 9953.
For the compound `CCOC(=O)C(O)C1(O)CC2COCC(C1)N2CC1=C(C(=O)OC)[C@H](c2ccc(F)cc2Cl)N=C(c2nccs2)N1` (stereo partly drawn) [Example 137, Methyl (4R)-4-(2-chloro-4-fluoro-phenyl)-6-[[7-(2-ethoxy-1-hydroxy-2-oxo-ethyl)-7-hydroxy-3-oxa-9-azabicyclo[3.3.1]nonan-9-yl]methyl]-2-thiazol-2-yl-1,4-dihydropyrimidine-5-carboxylate], the EC50 in data set [1] (setting [5]) turned out to be 3.2 nM. Further, in data set [3], the midpoint of cytotoxicity, the CC50 at 5 days, lay at 55000 nM. Also, the “Selectivity index (CC50/EC50)” value in data set [4] is 17031.
In the same order, the values of `CCOC(=O)CC1(NS(C)(=O)=O)CC2COCC(C1)N2CC1=C(C(=O)OC)[C@H](c2ccc(F)cc2Cl)N=C(c2nccs2)N1` (stereo partly drawn) [Example 146, Methyl (4R)-4-(2-chloro-4-fluoro-phenyl)-6-[[7-(2-ethoxy-2-oxo-ethyl)-7-(methanesulfonamido)-3-oxa-9-azabicyclo[3.3.1]nonan-9-yl]methyl]-2-thiazol-2-yl-1,4-dihydropyrimidine-5-carboxylate] are 0.5 nM, over 100000 nM and over 200000.
For the compound `CCOC(=O)CC1(NC(=O)C(F)(F)F)CC2COCC(C1)N2CC1=C(C(=O)OC)[C@H](c2ccc(F)cc2Cl)N=C(c2nccs2)N1` (stereo partly drawn) [Example 147, Methyl (4R)-4-(2-chloro-4-fluoro-phenyl)-6-[[7-(2-ethoxy-2-oxo-ethyl)-7-[(2,2,2-trifluoroacetyl)amino]-3-oxa-9-azabicyclo[3.3.1]nonan-9-yl]methyl]-2-thiazol-2-yl-1,4-dihydropyrimidine-5-carboxylate], the EC50 in data set [1] (HepG2.2.15) amounted to 0.9 nM. Further, the CC50 at 5 days in data set [3] was over 100000 nM. For the same compound, the “Selectivity index (CC50/EC50)” value in data set [4] is given as over 111111.
For `COC(=O)C1=C(CN2C3CC(F)(F)C2C[C@H]3C(=O)O)NC(c2nccs2)=N[C@H]1c1ccc(F)cc1Cl` (stereo partly drawn) [Example 152, (5R)-7-[[(4R)-4-(2-chloro-4-fluoro-phenyl)-5-methoxycarbonyl-2-thiazol-2-yl-1,4-dihydropyrimidin-6-yl]methyl]-2,2-difluoro-7-azabicyclo[2.2.1]heptane-5-carboxylic acid], in data set [1] (setting [5]), the EC50 was 17.7 nM. Besides, in data set [3], the CC50 at 5 days was over 100000 nM. For the same compound, the “Selectivity index (CC50/EC50)” value in data set [4] is on record as over 5650.
